Measurements reported in patent US12145929B2, “Piperidine derivative and pharmaceutical composition for inhibiting autotaxin comprising same” (NEXTGEN BIOSCIENCE CO., LTD., priority 2021, dated 2024).

Biological target: human Autotaxin protein (Homo sapiens, UniProt Q13822)
Assay: Evaluation of inhibitory activity against human Autotaxin protein (18:1 LysoPC substrate, choline assay kit, absorbance 570 nm)
Type: biochemical
Conditions: compound at 500 nM, 2 hours at 37° C.
Protocol: The solution of each synthesized compound (80 uM, 100% dimethyl sulfoxide) was sequentially diluted 5 times with dimethyl sulfoxide to prepare 6 concentrations. Each concentration of compound was diluted two-fold with 1× test buffer (50 mM Tris-Cl (pH 8.0), 5 mM KCl, 1 mM CaCl2), 1 mM MgCl2, 140 mM NaCl, deionized water, 1 mg/mL BSA), and 1 uL (1.25% dimethyl sulfoxide) of this diluted mixture was dispensed into each well of a 96 well clear round bottom plate. 9 uL of 1× test buffer were added to each well, followed by the addition of 20 uL of 240 nM human Autotaxin protein (buffer: 50 mM Tris-HCl, pH 8.0, with 150 mM sodium chloride and 20% glycerol). 10 uL of sonicated 360 uM 18:1 LysoPC (diluted with 1× test buffer) were added to each well. The reaction was performed for 2 hours in a shaking incubator at 37° C., and a secondary reaction mixture (choline assay kit, KA1662) (65 uL of 1× test buffer: 1 uL of choline oxidase: 1 uL of dye probe) was prepared. 60 uL of the secondary reaction mixture were added to the reaction plate and reacted on a shaker for 30 minutes. Using a SpectraMax iD3 microplate reader, the absorbance was measured at a wavelength of 570 nm. The percentage of inhibition activity (% inhibition) was calculated by the Formula: (1−Absorbancetestgroup/Absorbancecontrol group)×100.

SMILES	inhibition at 0.5 µM [%]	inhibition (%) at 500 nM [%]
Fc1cc2c(cc1F)CC(Nc1ncc(C3CC(N4CCC(c5nnn[nH]5)CC4)=NO3)cn1)C2 (centres unmarked) [Example 52, 5-(3-(4-(1H-tetrazol-5-yl)piperidin-1-yl)-4,5-dihydroisoxazol-5-yl)-N-(5,6-difluoro-2,3-dihydro-1H-inden-2-yl)pyrimidin-2-amine]	4.8	
Clc1ccc(CNc2ncc(-c3nnc(N4CCC(c5cnn[nH]5)CC4)o3)cn2)cc1Cl [Example 56, 5-(5-(4-(1H-1,2,3-triazol-5-yl)piperidin-1-yl)-1,3,4-oxadiazol-2-yl)-N-(3,4-dichlorobenzyl)pyrimidin-2-amine]	55.8	
Fc1ccc2c(c1)CC(Nc1ncc(C3CC(N4CCC(c5nnc(C(F)(F)F)o5)CC4)=NO3)cn1)C2 (centres unmarked) [Example 53, N-(5-fluoro-2,3-dihydro-1H-inden-2-yl)-5-(3-(4-(5-(trifluoromethyl)-1,3,4-oxadiazol-2-yl)piperidin-1-yl)-4,5-dihydroisoxazol-5-yl)pyrimidin-2-amine]	10.2	
Fc1ccc(CNc2ncc(C3CC(N4CCC(c5cnn[nH]5)CC4)=NO3)cn2)cc1F (centres unmarked) [Example 43, N-[(3,4-difluorophenyl)methyl]-5-[3-[4-(1H-triazol-5-yl)-1-piperidyl]-4,5-dihydroisoxazol-5-yl]pyrimidin-2-amine]		4.6
OC1CN(C2CCN(c3nnc(-c4cnc(NC5Cc6cc(F)c(F)cc6C5)nc4)o3)CC2)C1 [Example 64, 1-(1-(5-(2-((5,6-Difluoro-2,3-dihydro-1H-inden-2-yl)amino)pyrimidin-5-yl)-1,3,4-oxadiazol-2-yl)piperidin-4-yl)azetidin-3-ol]	28.1	
Fc1cc2c(cc1F)CC(Nc1ncc(-c3nnc(N4CCC(N5CCOCC5)CC4)o3)cn1)C2 [Example 63, N-(5,6-difluoro-2,3-dihydro-1H-inden-2-yl)-5-(5-(4-morpholinopiperidin-1-yl)-1,3,4-oxadiazol-2-yl)pyrimidin-2-amine]	42.9	
Fc1cc(F)cc(CNc2ncc(C3CC(N4CCC(c5cnn[nH]5)CC4)=NO3)cn2)c1 (centres unmarked) [Example 41, N-[(3,5-difluorophenyl)methyl]-5-[3-[4-(1H-triazol-5-yl)-1-piperidyl]-4,5-dihydroisoxazol-5-yl]pyrimidin-2-amine]		40.6
c1cc2c(cc1CNc1ncc(C3CC(N4CCC(c5cnn[nH]5)CC4)=NO3)cn1)OCO2 (centres unmarked) [Example 45, 5-(3-(4-(1H-1,2,3-triazol-5-yl)piperidin-1-yl)-4,5-dihydroisoxazol-5-yl)-N-(benzo[d][1,3]dioxol-5-ylmethyl)pyrimidin-2-amine]	1.6	

Continued, values first:

inhibition at 0.5 µM [%]	inhibition (%) at 500 nM [%]	SMILES
75		Brc1ccc2c(c1)CC(Nc1cnc(-c3nnc(N4CCC(c5cnn[nH]5)CC4)o3)cn1)C2 (centres unmarked) [Example 13, 5-(5-(4-(1H-1,2,3-Triazol-5-yl)piperidin-1-yl)-1,3,4-oxadiazol-2-yl)-N-(5-bromo-2,3-dihydro-1H-inden-2-yl)pyrazin-2-amine]
85		O=C(CCc1cnc(NC2Cc3ccccc3C2)nc1)N1CCC(c2cnc[nH]2)CC1 [Example 18, 1-(4-(1H-Imidazol-5-yl)piperidin-1-yl)-3-(2-((2,3-dihydro-1H-inden-2-yl)amino)pyrimidin-5-yl)propan-1-one]
84		Brc1ccc2c(c1)CC(Nc1ccc(-c3nnc(N4CCC(c5cnn[nH]5)CC4)o3)cn1)C2 (centres unmarked) [Example 12, 5-(5-(4-(1H-1,2,3-Triazol-5-yl)piperidin-1-yl)-1,3,4-oxadiazol-2-yl)-N-(5-bromo-2,3-dihydro-1H-inden-2-yl)pyridin-2-amine]
3.4		CS(=O)(=O)c1cccc(CNc2ncc(C3CC(N4CCC(c5cnn[nH]5)CC4)=NO3)cn2)c1 (centres unmarked) [Example 48, 5-(3-(4-(1H-1,2,3-triazol-5-yl)piperidin-1-yl)-4,5-dihydroisoxazol-5-yl)-N-(3-(methylsulfonyl)benzyl)pyrimidin-2-amine]
	8.6	c1ccc(CNc2ncc(C3CC(N4CCC(c5cnn[nH]5)CC4)=NO3)cn2)cc1 (centres unmarked) [Example 42, N-benzyl-5-[3-[4-(1H-triazol-5-yl)-1-piperidyl]-4,5-dihydroisoxazol-5-yl]pyrimidin-2-amine]
99		CC1CC(c2cnn[nH]2)CCN1c1nnc(-c2cnc(NC3Cc4ccc(Br)cc4C3)nc2)o1 (centres unmarked) [Example 11, N-(5-bromo-2,3-dihydro-1H-inden-2-yl)-5-(5-(2-methyl-4-(1H-1,2,3-triazol-5-yl)piperidin-1-yl)-1,3,4-oxadiazol-2-yl)pyrimidin-2-amine]
